Test results from patent publication US8808715B1, “Methods and compositions for modulating keratinocyte function” (Georgia Regents Research Institute, Inc, priority 2004, dated 2014).

Assays:
Format in all cases: cell-based, mouse
[1] = system: primary keratinocytes; assay: [3H]Glycerol uptake; settings: 24 hours
Procedure: Confluent primary keratinocytes were incubated for 30, 60, 90, 120, 300 or 600 seconds with SFKM containing 20 mM HEPES (for additional pH buffering), 1 μCi/mL [^3H]glycerol and 0.1% DMSO (control) or 100 nM PMA. Reactions were terminated by washing three times with ice-cold phosphate-buffered saline lacking divalent cations. The cells were subsequently solubilized in 0.3 M NaOH and aliquots of this extract subjected to liquid scintillation counting. Counts obtained from duplicate samples at each time point were averaged and graphed, and a linear equation was determined for each condition. Correlation coefficients obtained were typically 0.99 or greater (mean correlation coefficient for control was 0.992±0.002 and for PMA, 0.994±0.001). Slopes obtained from multiple experiments were averaged and analyzed statistically for significant differences between conditions.
The linearity of glycerol uptake determined above allowed measurement of uptake at a single time point to determine the effects of other treatments on this process. Thus, confluent keratinocytes were preincubated for 30 minutes with 0.1% DMSO (control) or 100 nM PMA prior to measuring [^3H]glycerol uptake as above but at 5 minutes only. Similarly, near-confluent primary keratinocytes were incubated for 24 hours with SFKM containing various calcium concentrations prior to measurement of radiolabeled glycerol uptake for 5 minutes.
Near-confluent keratinocyte cultures were incubated for 24 hours in SFKM (25 μM calcium) or SFKM containing 125 μM calcium (125 μM Ca^2+-SFKM) and the glycerol uptake assay performed as previously described in Zheng & Bollag (2003). Briefly, cells were incubated with SFKM containing 20 mM HEPES (for additional pH buffering) and 1 μCi/mL [^3H] glycerol for 5 minutes, since it has previously been shown that this time point is in the linear range of [^3H]glycerol uptake (Zheng & Bollag (2003). Reactions were terminated by rapidly washing three times with ice-cold phosphate-buffered saline lacking divalent cations (PBS-). Cells were then solubilized in 0.3 M NaOH and [^3H]glycerol uptake quantified by liquid scintillation spectroscopy.

[2] = system: keratin 10 promoter; assay: Co-transfection analysis, keratin 10 promoter-luciferase reporter; settings: 1 mM calcium, 24 hours
Procedure: The keratin 5 and keratin 10 promoter-luciferase constructs were provided by of Dr. Bogi Andersen (University of California, Irvine, Calif.); the involucrin promoter-luciferase construct was provided by Dr. Daniel Bikle (University of California, San Francisco, Calif.). Sub-confluent (approximately 30%) keratinocytes were transfected using TransIT-Keratinocyte according to the manufacturer's instructions. After 24 hours cells were refed with medium containing 25 μM (control) or 1 mM-Ca^2+ for an additional 24 hours. Luciferase activity was then measured using the Dual Luciferase Reporter Assay kit (Promega, Madison, Wis.) as directed by the manufacturer.

[3] = system: involucrin; assay: Involucrin protein levels by western analysis; settings: 24 hours; PG liposomes in 25 uM Ca2+ medium, or 125 uM Ca2+ alone; normalized to actin
Procedure: FIGS. 15A-B illustrate that glycerol, but not xylitol or sorbitol, inhibits DNA synthesis and enhances the inhibitory effect of an elevated extracellular Ca^2+ concentration. (A) Near-confluent keratinocytes were incubated for 24 hours with 0.02 or 0.1% glycerol and DNA synthesis measured as the incorporation of [^3H] thymidine incorporation into DNA. (B) Near-confluent keratinocytes were incubated for 24 hours with the indicated concentrations of glycerol (G, squares) or equivalent concentrations of xylitol (X, circles) in SFKM containing 25 μM (control; open symbols) or 125 μM Ca^2+ (Ca^2+; closed symbols). […] [^3H]Thymidine incorporation into DNA was then determined. […] Luciferase activity was then measured using a Dual Luciferase kit as directed by the manufacturer. […] The blots were quantified using the Kodak molecular imaging software. […]
PG was also examined for its ability to stimulate a marker of keratinocyte differentiation. Keratinocytes were treated with or without PG liposomes in 25 uM Ca^2+ (control) or 125 uM Ca^2+-containing medium for 24 hours and cell lysates were analyzed for involucrin protein levels (normalized to actin as a loading control) (FIG. 15E).

Compound: [Ca+2] [calcium]
- glycerol uptake relative to control ([1]; 500 μM calcium pretreatment): approximately equivalent to the control value
- glycerol uptake relative to control ([1]; 1 mM calcium pretreatment): slight but not significant inhibition
- increase in glycerol uptake relative to the 25 μM calcium control ([1]; pre-exposure to 125 μM calcium): 56%
- increase in glycerol uptake relative to the 25 μM calcium control ([1]; pre-exposure to 250 μM calcium): 41%
- inhibition of keratin 10 expression (promoter activity) [2]: 22%
- involucrin protein levels, each agent alone [3]: not significant effect
